According to article PMC10179505, “Rivastigmine–Benzimidazole Hybrids as Promising Multitarget Metal-Modulating Compounds for Potential Treatment of Neurodegenerative Diseases” (International Journal of Molecular Sciences, 2023):
Where two headings read alike, the source gives them in different places.

Columns and labels:
hMAO-A = molecular target: T1, hMAO-A (Homo sapiens, UniProt P21397); assay: hMAO-A inhibition (kynuramine to 4-hydroxyquinoline, microsomal recombinant enzyme); format: biochemical; details: for inhibition at 10 µM: read-out: % Inhibition (at 10 µM) hMAO-A
T1 construct: purchased Sigma-Aldrich Quimica S.A., Madrid, Spain; host or cells: insect cells (BTI-TN-5B1-4) infected with recombinant baculovirus
T1 sequence (P21397 1-527): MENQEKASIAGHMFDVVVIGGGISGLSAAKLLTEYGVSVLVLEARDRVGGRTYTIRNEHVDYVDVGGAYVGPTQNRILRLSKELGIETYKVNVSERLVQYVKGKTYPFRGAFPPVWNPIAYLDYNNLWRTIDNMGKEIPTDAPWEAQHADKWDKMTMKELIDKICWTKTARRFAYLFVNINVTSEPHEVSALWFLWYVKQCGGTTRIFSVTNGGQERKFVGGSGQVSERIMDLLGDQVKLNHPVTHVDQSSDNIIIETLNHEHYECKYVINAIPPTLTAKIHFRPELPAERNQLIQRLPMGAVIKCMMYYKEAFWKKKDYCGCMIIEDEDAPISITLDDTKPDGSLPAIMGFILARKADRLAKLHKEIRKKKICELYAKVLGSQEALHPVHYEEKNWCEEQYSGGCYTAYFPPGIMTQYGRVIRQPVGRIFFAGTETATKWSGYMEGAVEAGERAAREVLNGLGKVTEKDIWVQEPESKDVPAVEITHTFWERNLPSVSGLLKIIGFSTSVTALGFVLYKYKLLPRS
Protocol: (§1) The inhibitory activity of the rivastigmine hybrids (RIV–BIM) on hMAO-A and hMAO-B was studied using an experimental protocol described elsewhere with some modifications. The outlined hMAO inhibition was assessed in microsomal MAO isoforms prepared from insect cells (BTI-TN-5B1-4) infected with recombinant baculovirus containing cDNA inserts for hMAO-A or hMAO-B (Sigma-Aldrich Quimica S.A., Madrid, Spain) and by measuring the enzymatic conversion rates of kynuramine into 4-hydroxyquinoline. […] All assays were performed under sodium phosphate-buffered conditions (50 mM, pH = 7.4). […] Then, the reaction was started with the addition of hMAO-A or hMAO-B. Initial velocities were determined spectrophotometrically in a microplate reader (Biotek Synergy HT, Winooski, VT, USA) at 37 °C by measuring the formation of 4-hydroxyquinoline at 316 nm, over a period of at least 30 min (interval of 1 min). Data were analyzed using GraphPad PRISM version 6 for Windows (GraphPad Software®, San Diego, CA, USA). The initial velocities, obtained from the linear phase of product formation, were normalized and plotted against the respective inhibitor concentration. IC50 values were obtained from dose–response curves and were expressed as the mean ± standard deviation. IC50 values were determined from at least three independent experiments, each performed in triplicate.

SH-SY5Y cells = format: cell-based, human; details: 1 µM compound, 1 h pre-incubation, then 0.5 mM MPP+ for 24 h
Protocol: SH-SY5Y human neuroblastoma cells were kept in culture under a humidified atmosphere of 5% CO2 at 37 °C in Dulbecco’s Modified Eagle Medium/Nutrient Mixture F-12 (DMEM/F-12) (Gibco, Thermo Fisher Scientific) supplemented with 10% heat-inactivated fetal bovine serum (FBS), 50 U/mL penicillin, and 50 μg/mL streptomycin. Cells were plated at a density of 1 × 10^5 cells/mL and pre-incubated for 1 h with the compounds by adding them to the medium at the following final concentrations: 1 µM for compounds 4a, 4b, and 5b; 2 µM for compounds 4c and 5a; and 3 µM for compound 4d. Then the cells were incubated for 24 h with MPP^+ (1-methyl-4-phenylpyridinium, Sigma-Aldrich) (1 h pre-incubation + 24 h incubation) at the final concentration of 0.5 mM. MPP^+ was freshly prepared in sterile water on the day of the experiment. The compounds were dissolved in DMSO, aliquoted, and stored at −20 °C; their toxicity was previously studied through cell viability assays to select the highest non-toxic concentration of each compound.
Cell viability was measured by the colorimetric MTT (3-(4,5-dimethylthiazol-2-yl)-2,5-diphenyltetrazolium bromide) reduction assay, which follows the principle that viable cells can metabolize MTT into formazan that absorbs light at 570 nm. After the cell treatments with the compounds and MPP^+, the culture medium was removed, 150 µL of MTT (0.5 mg/mL dissolved in sodium medium) was added to each well, and the 48-well plate was incubated at 37 °C for 2 h. The formazan precipitates were then solubilized with 150 µL of 0.04 M HCl/isopropanol. The absorbance was read at 570 nm using a spectrophotometer (Spectramax Plus 384), and cell viability results were normalized to untreated SH-SY5Y cells, with the means ± SEMs derived from six different experiments performed in duplicate (N = 6). Statistical analyses were performed on GraphPad Prism 8 (GraphPad Software, San Diego, CA, USA) using one-way analysis of variance (ANOVA) followed by Tukey’s post hoc test or using Student’s t-test to determine statistical significance.

hMAO-B = molecular target: T2, hMAO-B (Homo sapiens, UniProt P27338); assay: hMAO-B inhibition (kynuramine to 4-hydroxyquinoline, microsomal recombinant enzyme); format: biochemical
T2 construct: purchased Sigma-Aldrich Quimica S.A., Madrid, Spain; host or cells: insect cells (BTI-TN-5B1-4) infected with recombinant baculovirus
T2 sequence (P27338 1-520): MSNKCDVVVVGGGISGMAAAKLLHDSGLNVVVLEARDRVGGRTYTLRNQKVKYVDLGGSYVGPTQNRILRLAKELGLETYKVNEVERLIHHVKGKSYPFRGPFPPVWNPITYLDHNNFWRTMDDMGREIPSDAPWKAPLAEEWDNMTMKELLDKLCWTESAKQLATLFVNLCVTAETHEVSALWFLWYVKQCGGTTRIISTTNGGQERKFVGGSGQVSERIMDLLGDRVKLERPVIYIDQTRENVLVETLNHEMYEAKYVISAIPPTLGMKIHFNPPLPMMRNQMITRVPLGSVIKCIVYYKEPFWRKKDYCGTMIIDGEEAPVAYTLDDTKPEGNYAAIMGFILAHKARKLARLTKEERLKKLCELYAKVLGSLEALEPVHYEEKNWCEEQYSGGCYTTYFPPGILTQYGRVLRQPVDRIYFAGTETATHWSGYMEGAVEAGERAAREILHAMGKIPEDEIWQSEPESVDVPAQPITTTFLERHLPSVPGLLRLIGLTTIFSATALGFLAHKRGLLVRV
Protocol: as §1

Aβ42 [1] = details: cited from earlier work
Aβ42 [2] = details: cited from earlier work; remark: listed apart in the source
[3] = Cu(II) complexation by spectrophotometric titration; format: physicochemical
Protocol: (§2) The metal complexation studies were performed by spectrophotometric titration, in the same 50% w/w DMSO/water medium used for both ligands alone, with fitting analysis of the UV-Vis spectra by Psequad. The calculated metal-chelating equilibrium models, included in Table 1, show good chelating capacity towards Cu(II) (pCu~10.3–13.6) and Fe(III) (pFe~16.8–17.4), involving complex species with a 1:1 to 1:2 or 1:1 to 1:3 M/L ratio, respectively. Metal coordination is expected to occur primarily through the phenolic oxygen and the imidazole nitrogen N(3) of the BIM moiety.
(§3) The two positional isomeric hybrids 4c and 5a were titrated, alone or in the presence of the metal ions, in a 50% w/w DMSO/H2O medium, at T = 25.0 ± 0.1 °C and ionic strength of (I) 0.1 M KCl, by using a 0.1 M KOH (50% w/w DMSO/H2O) titrant solution. The glass and Ag/AgCl reference electrodes were previously conditioned in different DMSO/H2O mixtures of increasing DMSO % compositions, and the response of the glass electrode was evaluated by strong acid–strong base (HCl/KOH) calibrations with the determination of the Nernst parameters by Gran’s method. […] The spectrophotometric measurements were carried out in a 250–450 nm (L, Cu/L systems) or 250–650 nm (L, Fe/L systems) wavelength range at pH ca 2.5–8.0. Under these specified experimental conditions, the pKw value (14.95) was determined and subsequently used in the calculations. The stepwise protonation constants of the ligands, Ki = [HiL]/[Hi−1L][H], and the overall metal–complex stability constants, βMmHhLl = [MmHhLl]/[M]^m[H]^h[L]^l, were calculated by fitting the spectrophotometric data with the Psequad program. The metal hydrolysis model was determined under the established experimental conditions (I = 0.1 M KCl, 50% w/w DMSO/H2O, T = 25.0 ± 0.1 °C) and the following values of stability constants were included in the equilibrium models related to the Fe(III)/L and Cu(II)/L systems: log βFeH−1 = −4.07, log βFeH−3 = −11.42; log βCu2H−2 = −9.99. The species distribution curves were obtained with the Hyss program.

[4] = Protonation constants by spectrophotometric titration (Psequad fitting); format: physicochemical; details: pH 7.4, CL = 1 × 10^−5 M
Protocol: To formulate the model for the metal chelation mechanism of compounds 4c and 5a, their protonation constants were first determined by spectrophotometric titrations in a 50% (w/w) DMSO/H2O medium by fitting the experimental data with the program Psequad. This working medium was adopted to perform all the equilibrium studies due to certain solubility problems of the compounds. Since the concentration of the compound used in cell studies is low (<7 μM), the final corresponding concentration of DMSO in culture media would be much lower (<1%) and also is not expected to induce modifications of biological tissues.
The two positional isomeric hybrids 4c and 5a were titrated, alone or in the presence of the metal ions, in a 50% w/w DMSO/H2O medium, at T = 25.0 ± 0.1 °C and ionic strength of (I) 0.1 M KCl, by using a 0.1 M KOH (50% w/w DMSO/H2O) titrant solution. The glass and Ag/AgCl reference electrodes were previously conditioned in different DMSO/H2O mixtures of increasing DMSO % compositions, and the response of the glass electrode was evaluated by strong acid–strong base (HCl/KOH) calibrations with the determination of the Nernst parameters by Gran’s method. […] Under these specified experimental conditions, the pKw value (14.95) was determined and subsequently used in the calculations. […]

[5] = Fe(III) complexation by spectrophotometric titration; format: physicochemical
Protocol: as §2, §3

[6] = absence of copper, 20 µM inhibitor, thioflavin-T fluorescence
[7] = presence of copper (40 µM), 20 µM inhibitor, thioflavin-T fluorescence
[8] = pM = −log[M] at pH 7.4, CL/CM = 10, CM = 10^−6 M

Structure (SMILES): C[C@H](NCc1ccc(OCc2cccc(F)c2)cc1)C(N)=O [Safinamide, safinamide, reference compound]
- inhibition at 10 µM (hMAO-A): 13%

Structure (SMILES): CCN(C)C(=O)Oc1cccc(NC(=O)c2ccc3[nH]c(-c4ccccc4O)nc3c2)c1 [4a]
- protection on MPP+-induced toxicity (cell viability, MTT) (SH-SY5Y cells): significant protection
- inhibition at 10 µM (hMAO-B): 28%
- Aβ42 Self- Aggreg. Inhib. (Aβ42 [1]; [6]): 39.0%
- IC50 (hMAO-A): 740 ± 70 nM
- hMAO isoform selectivity (hMAO-A; hMAO-A vs hMAO-B): selective for isoform A
- Aβ42 Cu-ind. Aggreg. Inhib. (Aβ42 [2]; [7]): 41.2%

Structure (SMILES): CCN(C)C(=O)Oc1cccc(NC(=O)c2cccc3[nH]c(-c4ccccc4O)nc23)c1 [5a]
- logβCumHhLl, global formation constant, species (1–11) ([3]; CuH−1L (1–11), T = 25.0 ± 0.1 °C, I = 0.1 M KCl, 50% w/w DMSO/water): 3.82(8)
- logβCumHhLl, global formation constant, species (102) ([3]; CuL2 (102), T = 25.0 ± 0.1 °C, I = 0.1 M KCl, 50% w/w DMSO/water): 20.43(5)
- logβCumHhLl, global formation constant, species (101) ([3]; CuL (101), T = 25.0 ± 0.1 °C, I = 0.1 M KCl, 50% w/w DMSO/water): 11.30(2)
- Kd ([3]; calculated at pH 7.4, read-out: conditional dissociation constant (K’d) for the copper complex): 0.098 nM
- pM (pCu) [3, 8]: 13.6
- inhibition at 10 µM (hMAO-B): 31%
- Aβ42 Self- Aggreg. Inhib. (Aβ42 [1]; [6]): 44.5%
- predominant neutral species HL [4]: 94.9%
- log βFemHhLl, global formation constant, species (102) ([5]; FeL2 (102), T = 25.0 ± 0.1 °C, I = 0.1 M KCl, 50% w/w DMSO/water): 23.82(4)
- log βFemHhLl, global formation constant, species (103) ([5]; FeL3 (103), T = 25.0 ± 0.1 °C, I = 0.1 M KCl, 50% w/w DMSO/water): 30.20(8)
- log βFemHhLl, global formation constant, species (101) ([5]; FeL (101), T = 25.0 ± 0.1 °C, I = 0.1 M KCl, 50% w/w DMSO/water): 12.53(5)
- pM (pFe) [5, 8]: 17.4
- inhibition at 10 µM (hMAO-A): 33%
- Aβ42 Cu-ind. Aggreg. Inhib. (Aβ42 [2]; [7]): 45.4%

Structure (SMILES): COc1cc(/C=C/C(=O)CC(=O)/C=C/c2ccc(O)c(OC)c2)ccc1O [Curcumin, curcumin, reference compound]
- Aβ42 Self- Aggreg. Inhib. (Aβ42 [1]): 65.7%
- Aβ42 Cu-ind. Aggreg. Inhib. (Aβ42 [2]): 62.7%
